Experimental data taken from patent US20240270821A1, “GIP/GLP1/GCG TRI-RECEPTOR AGONISTS AND USES THEREOF” (priority 2023, published 2024).
Like-named read-outs stand apart in the source and are kept apart here. Starred links: 1 amine or outer side, 2 acyl side, 3 side chain; linkers in the order of their positions; H or OH if unused. Non-standard residues stand in square brackets, D forms with d. Residues, ends and D or L forms follow the SMILES beside them. Groups on a side chain read outwards from the residue. No end group written: not given here. *: point of attachment. C20 diacid = O=C(O)CCCCCCCCCCCCCCCCCCC(=O)*; C18 diacid = O=C(O)CCCCCCCCCCCCCCCCC(=O)*; αMePhe(2-F) = C[C@](N)(Cc1ccccc1F)C(=O)O; γGlu = O=C(O)[C@H](CCC(=O)[*:2])N[*:1]; αMe4Pal = C[C@](N)(Cc1ccncc1)C(=O)O; αMeY = C[C@](N)(Cc1ccc(O)cc1)C(=O)O; αMeF = C[C@](N)(Cc1ccccc1)C(=O)O; 4Pal = N[C@@H](Cc1ccncc1)C(=O)O; αMeL = CC(C)C[C@](C)(N)C(=O)O; αMeS = C[C@](N)(CO)C(=O)O; Orn = NCCC[C@H](N)C(=O)O; AEEA = NCCOCCOCC(=O)O; Aib = CC(C)(N)C(=O)O

How the values were obtained:
Format in all cases: cell-based
[1] = molecular target: T1, hGLP-1R (Homo sapiens, UniProt P43220); assay: Functional cAMP activation in the presence of 0.1% casein (no HSA); details: read-out: Relative cAMP EC50, hGLP-1R;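 further: intracellular cAMP rise after 30 min at 37 °C read by HTRF, normalized between buffer only (0%) and maximal control ligand (100%), four-parameter variable-slope fit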
T1 sequence (P43220 24-463): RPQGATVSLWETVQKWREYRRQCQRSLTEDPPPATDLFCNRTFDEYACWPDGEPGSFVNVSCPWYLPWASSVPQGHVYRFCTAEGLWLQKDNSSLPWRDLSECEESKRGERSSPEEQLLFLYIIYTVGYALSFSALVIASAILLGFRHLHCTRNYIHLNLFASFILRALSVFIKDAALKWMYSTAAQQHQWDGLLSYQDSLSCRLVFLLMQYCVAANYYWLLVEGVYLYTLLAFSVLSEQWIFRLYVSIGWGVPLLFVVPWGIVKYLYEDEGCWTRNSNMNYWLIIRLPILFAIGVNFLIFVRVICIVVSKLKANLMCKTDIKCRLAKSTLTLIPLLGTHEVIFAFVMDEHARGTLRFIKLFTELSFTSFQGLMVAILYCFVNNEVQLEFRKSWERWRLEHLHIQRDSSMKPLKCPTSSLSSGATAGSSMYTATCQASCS

[2] = molecular target: hGcgR (Homo sapiens, UniProt P47871); assay: as above; details: read-out: Relative cAMP EC50, hGcgR;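 further: intracellular cAMP rise after 30 min at 37 °C, read by HTRF against a cAMP standard curve, scaled from buffer only (0%) to maximal control ligand response (100%)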
Sequence of hGcgR (P47871 26-477): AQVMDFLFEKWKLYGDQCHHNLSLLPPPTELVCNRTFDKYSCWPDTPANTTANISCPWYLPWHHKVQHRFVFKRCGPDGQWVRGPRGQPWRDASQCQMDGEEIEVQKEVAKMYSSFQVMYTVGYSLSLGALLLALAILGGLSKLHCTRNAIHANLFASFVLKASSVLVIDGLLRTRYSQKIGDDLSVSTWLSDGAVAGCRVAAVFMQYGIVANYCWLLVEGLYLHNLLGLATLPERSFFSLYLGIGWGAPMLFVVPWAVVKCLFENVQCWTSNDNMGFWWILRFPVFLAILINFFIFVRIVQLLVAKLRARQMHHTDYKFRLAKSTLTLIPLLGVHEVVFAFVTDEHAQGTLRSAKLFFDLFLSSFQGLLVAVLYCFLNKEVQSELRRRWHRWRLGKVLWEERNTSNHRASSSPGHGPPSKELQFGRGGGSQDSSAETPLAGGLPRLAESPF

[3] = molecular target: human GcgR (Homo sapiens, UniProt P47871); assay: Functional cAMP activity in the presence of 1% HSA; details: read-out: cAMP Rel EC50, hGcgR
Sequence of human GcgR (P47871 26-477): as above

[4] = molecular target: T2, hGIPR (Homo sapiens, UniProt P48546); assay: Functional cAMP activation in the presence of 0.1% casein (no HSA); details: read-out: Relative cAMP EC50, hGIPR;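 further: intracellular cAMP rise after 30 min at 37 °C read by HTRF against a standard curve, scaled between buffer alone (0%) and top control ligand concentration (100%), four-parameter fit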
T2 sequence (P48546 22-466): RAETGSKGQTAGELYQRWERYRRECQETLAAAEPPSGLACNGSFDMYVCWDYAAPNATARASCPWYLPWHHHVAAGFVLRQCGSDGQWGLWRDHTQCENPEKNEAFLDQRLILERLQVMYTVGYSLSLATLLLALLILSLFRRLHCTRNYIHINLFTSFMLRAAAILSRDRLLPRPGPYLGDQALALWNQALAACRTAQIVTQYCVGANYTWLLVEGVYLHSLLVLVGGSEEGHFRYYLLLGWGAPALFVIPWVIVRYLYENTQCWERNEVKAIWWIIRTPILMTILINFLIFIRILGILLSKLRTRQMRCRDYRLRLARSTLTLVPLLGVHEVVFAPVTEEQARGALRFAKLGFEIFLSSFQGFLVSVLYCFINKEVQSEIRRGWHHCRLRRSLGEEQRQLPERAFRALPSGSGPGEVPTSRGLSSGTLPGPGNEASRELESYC

[5] = molecular target: T1, hGLP-1R; assay: Functional cAMP activity in the presence of 1% HSA; details: read-out: cAMP Rel EC50, hGLP-1R
[6] = molecular target: T2, hGIPR; assay: Functional cAMP activity in the presence of 1% HSA; details: read-out: cAMP Rel EC50, hGIPR
[7] = in the presence of 0.1% casein (no HSA), geometric mean
[8] = 0.1% casein, no HSA, geometric mean
[9] = HEK-293 clonal cell line, in the presence of 1% HSA, geometric mean of relative EC50

Row | Compound | EC50 [1] | EC50 [2] | EC50 [3] | EC50 [4] | EC50 [5] | EC50 [6] | EC50 [1, 7] | EC50 [2, 7] | EC50 [4, 7] | EC50 [1, 8] | EC50 [2, 8] | EC50 [4, 8] | EC50 [3, 9] | EC50 [5, 9] | EC50 [6, 9]
1 | CC[C@H](C)[C@H](NC(=O)[C@H](CCCN)NC(=O)[C@H](CC(=O)O)NC(=O)[C@H](CC(C)C)NC(=O)[C@](C)(CC(C)C)NC(=O)[C@@H](NC(=O)[C@](C)(CO)NC(=O)[C@H](Cc1ccncc1)NC(=O)[C@H](CC(=O)O)NC(=O)[C@H](CO)NC(=O)[C@@H](NC(=O)[C@](C)(Cc1ccccc1F)NC(=O)[C@@H](NC(=O)CNC(=O)[C@H](CCC(N)=O)NC(=O)C(C)(C)NC(=O)[C@@H](N)Cc1ccc(O)cc1)[C@@H](C)O)[C@@H](C)O)[C@@H](C)CC)C(=O)N[C@@H](C)C(=O)N[C@@H](CCC(N)=O)C(=O)NC(C)(C)C(=O)N[C@@H](CCCN)C(=O)N[C@@H](Cc1ccccc1)C(=O)N[C@H](C(=O)N[C@H](CCC(=O)O)C(=O)N[C@@](C)(Cc1ccc(O)cc1)C(=O)N[C@@H](CC(C)C)C(=O)N[C@H](C(=O)N[C@@H](CCCCNC(=O)COCCOCCNC(=O)CC[C@H](NC(=O)CCCCCCCCCCCCCCCCC(=O)O)C(=O)O)C(=O)NCC(=O)NCC(=O)N1CCC[C@H]1C(=O)N[C@@H](CO)C(=O)N[C@@H](CO)C(=O)NCC(=O)N[C@@H](CCC(=O)O)C(=O)N1CCC[C@H]1C(=O)N1CCC[C@H]1C(=O)N1CCC[C@H]1C(=O)N[C@@H](CCC(=O)O)C(N)=O)[C@@H](C)CC)[C@@H](C)CC [Example 444] (H-Y[Aib]QGT[αMePhe(2-F)]TSD[4Pal][αMeS]I[αMeL]LD[Orn]IAQ[Aib][Orn]FI[dE][αMeY]LIK([AEEA-γGlu-C18 diacid])GGPSSGEPPPE-NH2) | 0.352 nM | 6.49 nM | 1280 nM | 0.0106 nM | 54.6 nM | 1.74 nM |  |  |  |  |  |  |  |  | 
2 | H-Y[Aib]QGT[αMePhe(2-F)]TSD[4Pal][αMeS]I[αMeL]LD[Orn]K([AEEA-γGlu-γGlu-C18 diacid])AQ[αMe4Pal]EFI[dE][αMeY]LIEGGPSSGEPPPSGSE-NH2 [Example 1179] |  |  | 197 nM |  | 37.9 nM | 0.58 nM | 0.652 nM | 2.87 nM | 0.0102 nM |  |  |  |  |  | 
3 | Y[Aib]QGT[αMePhe(2-F)]TSD[4Pal][αMeS]I[αMeL]LD[Orn]K([γGlu-γGlu-C18 diacid])AQ[αMe4Pal]EFI[dE][αMeY]LIEGGPSSGAPPPEGGGEEE-NH2 [Example 1221] |  |  | 185 nM |  | 57.8 nM | 0.814 nM |  |  |  | 0.839 nM | 2.27 nM | 0.0111 nM |  |  | 
4 | H-Y[Aib]QGT[αMePhe(2-F)]TSDYSKLLDKIAQK([AEEA-γGlu-C20 diacid])AFIEYLIEGGPSSGAPPPSGE-NH2 [Example 356] |  |  | 2680 nM |  | 206 nM | 19.2 nM | 0.599 nM | 4.76 nM | 0.0613 nM |  |  |  |  |  | 
5 | H-Y[Aib]QGT[αMeF]TSD[4Pal][αMeS]I[αMeL]LD[Orn]K([γGlu-γGlu-C18 diacid])AQ[αMe4Pal]EFI[dE][αMeY]LIEGGPSSGAPPPSGSE-NH2 [Example 1172] |  |  | 303 nM |  | 45.5 nM | 0.7 nM | 0.44 nM | 2.52 nM | 0.00886 nM |  |  |  |  |  | 
6 | H-Y[Aib]QGTFTSDFSK[αMeL]LDKK([AEEA-γGlu-C18 diacid])AQ[Aib]AFIEYLIE[Aib]SPSSGAPPPSGS-NH2 [Example 805] |  |  | 1210 nM |  | 146 nM | 13 nM | 0.715 nM | 3.97 nM | 0.0875 nM |  |  |  |  |  | 
7 | H-Y[Aib]QGTFTSD[4Pal]SQ[αMeL]LD[Orn]K([γGlu-γGlu-C18 diacid])AQ[Aib]AFIE[αMeY]LLEGGPSSGAPPPSGSEE-NH2 [Example 946] |  |  | 1950 nM |  | 576 nM | 57.4 nM | 2.05 nM | 16.5 nM | 0.353 nM |  |  |  |  |  | 
8 | H-Y[Aib]QGT[αMePhe(2-F)]TSD[4Pal]SILLDKK([γGlu-γGlu-C18 diacid])AQ[Aib]AFIEYLEEGGPSSGAPPPSGAGE-NH2 [Example 620] | 0.981 nM | 8.26 nM | 665 nM | 0.0706 nM | 90.7 nM | 5.96 nM |  |  |  |  |  |  |  |  | 
9 | Y[Aib]QGTFTSD[4Pal]SQ[αMeL]LDKK([γGlu-γGlu-C18 diacid])AQ[αMe4Pal]AFIE[αMe4Pal]LIE[Aib]GPSSGAPPPSGSEE-NH2 [Example 1122] |  |  |  |  |  |  | 5.66 nM | 10.3 nM | 0.109 nM |  |  |  | 474 nM | 177 nM | 4.54 nM
10 | H-Y[Aib]QGTFTSD[4Pal]SQ[αMeL]LD[Orn]K([Glu-γGlu-C18 diacid])AQ[αMe4Pal]AFIQ[αMeY]LIEGGPSSGAPPPSGSEEE-NH2 [Example 1077] |  |  | 3160 nM |  | 408 nM | 27.8 nM | 1.48 nM | 18.8 nM | 0.23 nM |  |  |  |  |  | 
11 | H-Y[Aib]QGTFTSD[4Pal]SQ[αMeL]LDKK([AEEA-γGlu-γGlu-C18 diacid])AQ[αMe4Pal]AFIEYLIAGGPSSGEPPPSGS-NH2 [Example 947] |  |  | 727 nM |  | 150 nM | 16.6 nM | 1.7 nM | 6.99 nM | 0.289 nM |  |  |  |  |  | 
12 | Y[Aib]QGT[αMePhe(2-F)]TSD[4Pal][αMeS]ILLD[Orn]K([γGlu-γGlu-C18 diacid])AQ[Aib][Orn]FI[dE]YLIEGGPSSGEPPPEGGEE-NH2 [Example 605] | 0.795 nM | 5.49 nM | 353 nM | 0.132 nM | 56.2 nM | 6.69 nM |  |  |  |  |  |  |  |  | 
13 | Y[Aib]QGTFTSD[4Pal]SQ[αMeL]LDKK([Glu-Glu-γGlu-C18 diacid])AQ[αMe4Pal]AFIEYLIE[Aib]GPSSGAPPPSGS-NH2 [Example 895] |  |  | 1250 nM |  | 599 nM | 34 nM | 3.72 nM | 4.68 nM | 0.111 nM |  |  |  |  |  | 
14 | H-Y[Aib]QGTFTSDFS[Orn][αMeL]LDKK([AEEA-γGlu-C18 diacid])AQ[Aib]AFIEYLLEGGPSSGEPPPSGS-NH2 [Example 131] |  |  | 976 nM |  | 984 nM | 91.8 nM | 5.51 nM | 2.64 nM | 0.416 nM |  |  |  |  |  | 
15 | H-Y[Aib]QGT[αMePhe(2-F)]TSD[4Pal][αMeS]I[αMeL]LD[Orn]K([AEEA-γGlu-C18 diacid])AQ[αMe4Pal]EFI[dE][αMeY]LIEGGPSSGAPPPSGGGEEE-NH2 [Example 1215] |  |  | 272 nM |  | 58.5 nM | 0.937 nM |  |  |  | 0.668 nM | 2.09 nM | 0.0106 nM |  |  | 
16 | CC[C@H](C)[C@H](NC(=O)[C@H](CC(C)C)NC(=O)[C@](C)(Cc1ccc(O)cc1)NC(=O)[C@H](CCC(=O)O)NC(=O)[C@@H](NC(=O)[C@H](Cc1ccccc1)NC(=O)[C@H](CCC(N)=O)NC(=O)[C@](C)(Cc1ccncc1)NC(=O)[C@H](CCC(N)=O)NC(=O)[C@H](C)NC(=O)[C@H](CCCCNC(=O)COCCOCCNC(=O)CC[C@H](NC(=O)CCCCCCCCCCCCCCCCC(=O)O)C(=O)O)NC(=O)[C@H](CCCN)NC(=O)[C@H](CC(=O)O)NC(=O)[C@H](CC(C)C)NC(=O)[C@](C)(CC(C)C)NC(=O)[C@H](CCC(N)=O)NC(=O)[C@H](CO)NC(=O)[C@H](Cc1ccncc1)NC(=O)[C@H](CC(=O)O)NC(=O)[C@H](CO)NC(=O)[C@@H](NC(=O)[C@H](Cc1ccccc1)NC(=O)[C@@H](NC(=O)CNC(=O)[C@H](CCC(N)=O)NC(=O)C(C)(C)NC(=O)[C@@H](N)Cc1ccc(O)cc1)[C@@H](C)O)[C@@H](C)O)[C@@H](C)CC)C(=O)N[C@@H](C)C(=O)NC(C)(C)C(=O)NCC(=O)N1CCC[C@H]1C(=O)N[C@@H](CO)C(=O)N[C@@H](CO)C(=O)NCC(=O)N[C@@H](C)C(=O)N1CCC[C@H]1C(=O)N1CCC[C@H]1C(=O)N1CCC[C@H]1C(=O)N[C@@H](CO)C(=O)NCC(=O)N[C@@H](CO)C(=O)N[C@@H](CCC(=O)O)C(=O)N[C@@H](CCC(=O)O)C(N)=O [Example 1111] |  |  | 299 nM |  | 51.3 nM | 3.66 nM | 1.14 nM | 5.28 nM | 0.0356 nM |  |  |  |  |  | 
